From ChEMBL document CHEMBL3526152, “Cytoprotective effect of 20S-Rg3 on benzo[a]pyrene-induced DNA damage” (Drug Metab Dispos, 2012)
Calls of active or inactive are those of the source. No cut-off for these calls is given here.

Assays:
[1] = tested on: HDF; assay: Cytoprotective activity in neonatal HDF assessed as reduction of BaP-induced tail moment at 10 uM after 24 hrs by comet assay; type: functional; conditions: Homo sapiens
[2] = Cytoprotective activity in neonatal HDF assessed as reduction of BaP-induced DNA strand breakage by measuring tunnel positive cells at 10 uM after 24 hrs (reference value: 15.96%); type: functional, Homo sapiens; design: scale not given: the % may be the effect or the level left
[3] = tested on: HDF; assay: Cytoprotective activity in neonatal HDF assessed as reduction of BaP-induced cell death at 10 uM after 24 hrs by MTT assay; type: functional; conditions: Homo sapiens
[4] = Cytotoxicity against neonatal HDF assessed as cell viability at 10 uM after 24 hrs by MTT assay relative to control; type: functional; conditions: Homo sapiens, read-out: Activity
[5] = tested on: Plasma; assay: Plasma concentration in human at 60 mg by HPLC-MS analysis; type: ADME
[6] = tested on: HDF; assay: Cytoprotective activity in neonatal HDF assessed as reduction of BaP-induced tail moment at 10 uM after 24 hrs by comet assay in presence of PI3K/Akt inhibitor LY294002; type: functional; conditions: Homo sapiens
[7] = target: T1, Nuclear receptor subfamily 1 group I member 2 (Homo sapiens, UniProt O75469); assay: Competitive binding affinity to PXR in human HepG2 cells at 0.01 to 50 uM by FRET analysis in presence of […]; type: cell-based
T1 sequence (O75469 whole entry): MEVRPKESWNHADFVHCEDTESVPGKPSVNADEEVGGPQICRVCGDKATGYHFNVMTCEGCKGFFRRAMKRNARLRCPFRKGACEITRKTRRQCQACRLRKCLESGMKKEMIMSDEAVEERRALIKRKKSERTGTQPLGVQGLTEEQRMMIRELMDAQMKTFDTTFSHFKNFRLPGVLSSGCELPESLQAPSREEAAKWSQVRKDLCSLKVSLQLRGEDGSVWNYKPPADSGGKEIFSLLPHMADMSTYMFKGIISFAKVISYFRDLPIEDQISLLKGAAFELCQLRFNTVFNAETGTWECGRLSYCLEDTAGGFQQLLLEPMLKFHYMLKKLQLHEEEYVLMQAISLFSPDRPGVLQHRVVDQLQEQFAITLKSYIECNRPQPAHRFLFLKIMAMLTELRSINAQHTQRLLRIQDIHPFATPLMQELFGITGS

[8] = species: Homo sapiens; assay: Induction of ERK phosphorylation at Thr202/Try204 in neonatal HDF at 10 uM by Western blot analysis; conditions: TDE = time-dependent effect
[9] = target: T2, Nuclear factor erythroid 2-related factor 2 (Homo sapiens) (UniProt Q16236); assay: Induction of Nrf2 nuclear translocation in BaP-treated neonatal HDF at 10 uM after 2 hrs by DAPI staining-based confocal scanning laser microcopic analysis in presence of PI3K/Akt inhibitor LY294002
T2 sequence (whole entry): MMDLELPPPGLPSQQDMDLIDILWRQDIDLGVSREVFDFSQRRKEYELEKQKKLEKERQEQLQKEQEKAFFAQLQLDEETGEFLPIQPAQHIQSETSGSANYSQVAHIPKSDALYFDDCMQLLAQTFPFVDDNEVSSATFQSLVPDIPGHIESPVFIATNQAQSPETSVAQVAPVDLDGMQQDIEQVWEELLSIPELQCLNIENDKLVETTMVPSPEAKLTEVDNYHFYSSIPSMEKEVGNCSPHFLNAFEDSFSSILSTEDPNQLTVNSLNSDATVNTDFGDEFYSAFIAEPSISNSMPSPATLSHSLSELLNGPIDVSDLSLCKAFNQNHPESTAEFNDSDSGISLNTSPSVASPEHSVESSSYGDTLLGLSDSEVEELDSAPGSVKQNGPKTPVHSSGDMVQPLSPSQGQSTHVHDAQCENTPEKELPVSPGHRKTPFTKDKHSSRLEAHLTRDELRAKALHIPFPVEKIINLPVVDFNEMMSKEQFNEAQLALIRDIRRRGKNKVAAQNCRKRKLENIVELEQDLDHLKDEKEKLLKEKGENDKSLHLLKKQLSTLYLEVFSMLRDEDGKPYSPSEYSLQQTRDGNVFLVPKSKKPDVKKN

[10] = target: T2, Nuclear factor erythroid 2-related factor 2 (Homo sapiens); assay: Induction of Nrf2 nuclear translocation in BaP-treated neonatal HDF assessed as upregulation of NQO1 mRNA expression at 10 uM after 24 hrs by real-time PCR analysis relative to BaP-treated control
[11] = tested on: HepG2; assay: Cytoprotective activity in human HepG2 cells assessed as reduction of BaP-induced tail moment at 10 uM after 24 hrs by comet assay; type: functional, cell-based
[12] = target: T2, Nuclear factor erythroid 2-related factor 2 (Homo sapiens); assay: Induction of Nrf2 nuclear translocation in BaP-treated neonatal HDF at 10 uM after 2 hrs by DAPI staining-based confocal scanning laser microcopic analysis
[13] = tested on: HepG2; assay: Cytoprotective activity in human HepG2 cells transfected with siPXR assessed as reduction of BaP-induced tail moment at 10 uM after 24 hrs by comet assay; type: functional, cell-based
[14] = target: RAC-alpha serine/threonine-protein kinase (Homo sapiens) (UniProt P31749); assay: Induction of AKT phosphorylation at Ser473 in neonatal HDF at 10 uM by Western blot analysis; conditions: TDE = time-dependent effect
Chain of RAC-alpha serine/threonine-protein kinase (Homo sapiens) (P31749 whole entry): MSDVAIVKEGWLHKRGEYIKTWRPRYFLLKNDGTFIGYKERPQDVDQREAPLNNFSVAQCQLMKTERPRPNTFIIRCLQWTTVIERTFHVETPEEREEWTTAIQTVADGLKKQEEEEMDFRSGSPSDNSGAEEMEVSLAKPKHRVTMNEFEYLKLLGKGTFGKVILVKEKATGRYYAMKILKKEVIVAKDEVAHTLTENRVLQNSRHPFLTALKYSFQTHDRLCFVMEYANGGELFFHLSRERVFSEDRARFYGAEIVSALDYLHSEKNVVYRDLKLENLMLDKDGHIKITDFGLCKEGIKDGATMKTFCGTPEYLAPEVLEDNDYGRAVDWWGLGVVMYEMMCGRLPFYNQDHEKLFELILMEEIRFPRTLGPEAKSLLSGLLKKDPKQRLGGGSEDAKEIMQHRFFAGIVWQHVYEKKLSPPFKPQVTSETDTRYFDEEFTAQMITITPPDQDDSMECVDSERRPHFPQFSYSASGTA

[15] = target: T2, Nuclear factor erythroid 2-related factor 2 (Homo sapiens); assay: Induction of Nrf2 nuclear translocation in neonatal HDF at 10 uM after 2 hrs by DAPI staining-based confocal scanning laser microcopic analysis

CC(C)=CCC[C@@](C)(O)[C@H]1CC[C@]2(C)[C@@H]1[C@H](O)C[C@@H]1[C@@]3(C)CC[C@H](O[C@@H]4O[C@H](CO)[C@@H](O)[C@H](O)[C@H]4O[C@@H]4O[C@H](CO)[C@@H](O)[C@H](O)[C@H]4O)C(C)(C)[C@@H]3CC[C@]12C
Activity [1]: inactive | Activity [2]: 12.76% | Activity [3]: inactive | viability at 10 µM [4]: 105%

CC(C)=CCC[C@](C)(O[C@@H]1O[C@H](CO)[C@@H](O)[C@H](O)[C@H]1O)[C@H]1CC[C@]2(C)[C@@H]1[C@H](O)C[C@@H]1[C@@]3(C)CC[C@H](O)C(C)(C)[C@@H]3[C@@H](O[C@@H]3O[C@H](CO)[C@@H](O)[C@H](O)[C@H]3O)C[C@]12C [GINSENOSIDE RG1]
Activity [1]: inactive | Activity [2]: 20.97% | Activity [3]: inactive | viability at 10 µM [4]: 98%

CC(C)=CCC[C@](C)(O)[C@H]1CC[C@]2(C)[C@@H]1[C@H](O)C[C@@H]1[C@@]3(C)CC[C@H](O[C@@H]4O[C@H](CO)[C@@H](O)[C@H](O)[C@H]4O[C@@H]4O[C@H](CO)[C@@H](O)[C@H](O)[C@H]4O)C(C)(C)[C@@H]3CC[C@]12C
concentration [5]: 3 nM | Activity [6]: inactive | Activity [1]: Active | Activity [7]: Active | Activity [8]: tde | Activity [9]: inactive | fold change (FC) [10]: 2 | Activity [2]: 3.07% | Activity [11]: Active | Activity [12]: Active | Activity [13]: inactive | Activity [3]: Active | Activity [14]: tde | viability at 10 µM [4]: 124% | Activity [15]: Active

CC(C)=CCC[C@](C)(O[C@@H]1O[C@H](CO[C@@H]2O[C@H](CO)[C@@H](O)[C@H](O)[C@H]2O)[C@@H](O)[C@H](O)[C@H]1O)[C@H]1CC[C@]2(C)[C@@H]1[C@H](O)C[C@@H]1[C@@]3(C)CC[C@H](O[C@@H]4O[C@H](CO)[C@@H](O)[C@H](O)[C@H]4O[C@@H]4O[C@H](CO)[C@@H](O)[C@H](O)[C@H]4O)C(C)(C)[C@@H]3CC[C@]12C [GINSENOSIDE RB1]
Activity [1]: inactive | Activity [2]: 9.77% | Activity [3]: inactive | viability at 10 µM [4]: 91%
